This note sets out measurements from patent publication US9115143B2, “Substituted indole derivatives as gamma secretase modulators” (Janssen Pharmaceuticals, Inc., priority 2011, dated 2015).

Data set [1] has as its system Aβ42. The experiment in a line: In vivo efficacy B-1b: brain soluble Aβ42, MSD electrochemiluminescence multiplex. The note with it: mouse brain soluble fraction, dose 30 mg/kg oral dosing, 4 h after dose; untreated control set at 100; read-out: Aβ42 (% vs Ctrl)_Mean. The source says:
(§1) To determine whether acute administration of an Aβ42 lowering agent would reduce Aβ42 levels in vivo, non-transgenic rodents, e.g. mice or rats were used. Animals treated with the Aβ42 lowering agent were examined and compared to those untreated or treated with vehicle and brain levels of soluble Aβ42, Aβ40, Aβ38, and Aβ37 were quantitated by Meso Scale Discovery's (MSD) electrochemiluminescence detection technology. Treatment periods varied from hours (h) to days and were adjusted based on the results of the Aβ42 lowering once a time course of onset of effect could be established.
(§2) A typical protocol for measuring Aβ42 lowering in vivo is shown but it is only one of many variations that could be used to optimize the levels of detectable Aβ. For example, Aβ42 lowering compounds were formulated in 20% of Captisol® (a sulfobutyl ether of β-cyclodextrin) in water or 20% hydroxypropyl β cyclodextrin. The Aβ42 lowering agents were administered as a single oral dose or by any acceptable route of administration to overnight fasted animals. After 4 h, the animals were sacrificed and Aβ42 levels were analysed.
(§3) Blood was collected by decapitation and exsanguinations in EDTA-treated collection tubes. Blood was centrifuged at 1900 g for 10 minutes (min) at 4° C. and the plasma recovered and flash frozen for later analysis. The brain was removed from the cranium and hindbrain. The cerebellum was removed and the left and right hemisphere were separated. The left hemisphere was stored at −18° C. for quantitative analysis of test compound levels. The right hemisphere was rinsed with phosphate-buffered saline (PBS) buffer and immediately frozen on dry ice and stored at −80° C. until homogenization for biochemical assays.
(§4) Mouse brains from non-transgenic animals were resuspended in 8 volumes of 0.4% DEA (diethylamine)/50 mM NaCl containing protease inhibitors (Roche-11873580001 or 04693159001) per gram of tissue, e.g. for 0.158 g brain, add 1.264 ml of 0.4% DEA. All samples were homogenized in the FastPrep-24 system (MP Biomedicals) using lysing matrix D (MPBio #6913-100) at 6 m/s for 20 seconds. Homogenates were centrifuged at 20800×g for 5 min and supernatants collected. Supernatants were centrifuged at 221.300×g for 50 min. The resulting high speed supernatants were then transferred to fresh eppendorf tubes. Nine parts of supernatant were neutralized with 1 part 0.5 M Tris-HCl pH 6.8 and used to quantify Aβ.
(§5) To quantify the amount of Aβ42, Aβ40, Aβ38, and Aβ37 in the soluble fraction of the brain homogenates, simultaneous specific detection of Aβ42, Aβ40, Aβ38, and Aβ37 was performed using MSD's electro-chemiluminescence multiplex detection technology. In this assay purified monoclonal antibodies specific for Abeta37 (JRD/Aβ37/3), Abeta38 (J&JPRD/Aβ38/5), Abeta40 (JRF/cAβ40/28), and Abeta42 (JRF/cAβ42/26) were coated on MSD 4-plex plates. Briefly, the standards (a dilution of synthetic Aβ42, Aβ40, Aβ38, and Aβ37) were prepared in 1.5 ml Eppendorf tube in Ultraculture, with final concentrations ranging from 10000 to 0.3 pg/m. The samples and standards were co-incubated with Sulfo-tag labelled JRF/rAβ/2 antibody to the N-terminus of Aβ as detector antibody. 50 μl of conjugate/sample or conjugate/standards mixtures were then added to the antibody-coated plate. The plate was allowed to incubate overnight at 4° C. in order to allow formation of the antibody-amyloid complex. Following this incubation and subsequent wash steps the assay was finished by adding read buffer according to the manufacturer's instructions (Meso Scale Discovery, Gaitherburg, Md.).
(§6) The SULFO-TAG emits light upon electrochemical stimulation initiated at the electrode. MSD Sector instrument SI6000 was used for signal read-out.
In this model a Aβ42 lowering compared to untreated animals would be advantageous, in particular a Aβ42 lowering with at least 10%, more in particular a Aβ42 lowering with at least 20%. […]

For data set [2], the system named is Aβ42. As to the kind of experiment: Screening for γ-secretase-modulating activity: Aβ42 in supernatant of SKNBE2 cells carrying hAPP 695 wild type (Alphalisa). It counts as cell-based, human. Particulars: SKNBE2 human neuroblastoma cells carrying hAPP 695 wild type; overnight incubation; Alphalisa on supernatant. The procedure, abridged: (§7)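 SKNBE2 human neuroblastoma cells expressing wild-type hAPP 695 (10^4/well) were incubated overnight at 37 °C, 5% CO2 with compound at several concentrations. Supernatant Aβ42 and Aβtotal measured by AlphaLISA sandwich immunoassays; IC50 from 4-parameter fit of percent of untreated control versus log concentration.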

The test system of a further data set is Aβ38. The experiment in a line: In vivo efficacy B-2b: brain soluble Aβ38, MSD electrochemiluminescence multiplex. The note with it: mouse brain soluble fraction, dose 30 mg/kg oral dosing, 4 h after dose; untreated control set at 100; read-out: Aβ38 (% vs Ctrl)_Mean.
Excerpt: To determine whether acute administration of an Aβ38 increasing agents would increase Aβ38 levels in vivo, non-transgenic rodents, e.g. mice or rats were used. Animals treated with the Aβ38 increasing agents were examined and compared to those untreated or treated with vehicle and brain levels of soluble Aβ42, Aβ40, Aβ38, and Aβ37 were quantitated by MSD electrochemiluminescence detection technology. Treatment periods varied from hours (h) to days and were adjusted based on the results of the Aβ38 increase once a time course of onset of effect could be established.
A typical protocol for measuring Aβ38 increase in vivo is shown but it is only one of many variations that could be used to optimize the levels of detectable Aβ. For example, Aβ38 increasing agents were formulated in 20% of Captisol® (a sulfobutyl ether of β-cyclodextrin) in water or 20% hydroxypropyl β cyclodextrin. The Aβ38 increasing agents were administered as a single oral dose or by any acceptable route of administration to overnight fasted animals. After 4 h, the animals were sacrificed and Aβ38 levels were analysed.
as §3, §4, §5, §6
In this model a Aβ38 increase compared to untreated animals would be advantageous, in particular a Aβ38 increase with at least 10%, more in particular a Aβ38 increase with at least 20%. […]

The next data set deals with Aβtotal. As to the kind of experiment: Screening for γ-secretase-modulating activity: Aβtotal in supernatant of SKNBE2 cells carrying hAPP 695 wild type (Alphalisa). It counts as cell-based, human. The note with it: SKNBE2 human neuroblastoma cells carrying hAPP 695 wild type; overnight incubation; Alphalisa on supernatant. Summed up:
as §7

For the next data set, the system named is Aβ40. As to the kind of experiment: In vivo efficacy B-1b/B-2b: brain soluble Aβ40, MSD electrochemiluminescence multiplex. Particulars: mouse brain soluble fraction, dose 30 mg/kg oral dosing, 4 h after dose; untreated control set at 100; read-out: Aβ40 (% vs Ctrl)_Mean.
Excerpt: as §1, §2, §3, §4, §5, §6
The results are shown in Table 5 (dose 30 mg/kg oral dosing) (value for untreated animals as control (Ctrl) was set at 100): […]

Structures are written as SMILES. Where only a bound is given, the exact number is not on record here.

In turn, `COc1c(C#N)ccc2[nH]c(-c3cn4c(n3)C(c3cc(F)ccc3C)OCC4)cc12` (stereo not drawn) [Compound 158, 2-[8-(5-fluoro-2-methylphenyl)-5,6-dihydro-8H-imidazo[2,1-c][1,4]oxazin-2-yl]-4-methoxy-1H-indole-5-carbonitrile] registered a melting point of 280.1 °C. For the same molecule, in the data set on Aβ42 [1], the response vs control in vivo at 30 mg/kg came to 66%. Moreover, 23 nM corresponded to half-maximal inhibition in the data set on Aβ42 [2] (IC50). Also, in the data set on Aβ38, the response vs control in vivo at 30 mg/kg amounted to 140%. In the data set with Aβtotal, the IC50 was above 10000 nM. Also, the response vs control in vivo at 30 mg/kg with Aβ40 was 87%.
`COc1c(C#N)ccc2[nH]c(-c3cn4c(n3)C(c3c(C)cccc3F)OCC4)cc12` (stereo not drawn) [Compound 138, 2-[8-(2-fluoro-6-methylphenyl)-5,6-dihydro-8H-imidazo[2,1-c][1,4]oxazin-2-yl]-4-methoxy-1H-indole-5-carbonitrile]: the melting point turned out to be 297 °C. Besides, the response vs control in vivo at 30 mg/kg in the data set on Aβ42 [1] came out at 75%. Moreover, in the data set on Aβ42 [2], the IC50 was 19 nM. In addition, in the data set with Aβ38, the response vs control in vivo at 30 mg/kg was determined as 117%. The molecule also registered an IC50 in the data set with Aβtotal above 10000 nM. Further, the response vs control in vivo at 30 mg/kg in the data set with Aβ40 is 90%.
As for `COc1c(C#N)ccc2[nH]c(-c3nc4n(n3)CCOC4c3cccc(F)c3C)cc12` (stereo not drawn) [Compound 147, 2-[8-(3-fluoro-2-methylphenyl)-5,6-dihydro-8H-[1,2,4]triazolo[5,1-c][1,4]oxazin-2-yl]-4-methoxy-1H-indole-5-carbonitrile], the melting point amounted to 240.4 °C. Moreover, the response vs control in vivo at 30 mg/kg with Aβ42 [1] amounted to 67%. For the same molecule, 31 nM corresponded to half-maximal inhibition with Aβ42 [2] (IC50). The response vs control in vivo at 30 mg/kg with Aβ38 came out at 160%. In addition, the IC50 with Aβtotal is above 10000 nM. Also, in the data set on Aβ40, the response vs control in vivo at 30 mg/kg worked out at 79%.
`COc1c(C#N)ccc2[nH]c(-c3cn4c(n3)C(c3ccccc3Cl)OCC4)cc12` (stereo not drawn) [Compound 50, 2-[8-(2-chlorophenyl)-5,6-dihydro-8H-imidazo[2,1-c][1,4]oxazin-2-yl]-4-methoxy-1H-indole-5-carbonitrile] yielded a melting point of 254.3 °C. Besides, in the data set on Aβ42 [1], the response vs control in vivo at 30 mg/kg stood at 43%. In the data set with Aβ42 [2], it took 31 nM to reach half-maximal inhibition (IC50). In addition, the response vs control in vivo at 30 mg/kg in the data set with Aβ38 was 141%. In the data set on Aβtotal, this molecule had an IC50 above 10000 nM. Moreover, the response vs control in vivo at 30 mg/kg in the data set with Aβ40 was found to be 46%.
